Measurements reported in article PMC6151550, “Inhibitory Effect of Selaginellins from Selaginella tamariscina (Beauv.) Spring against Cytochrome P450 and Uridine 5′-Diphosphoglucuronosyltransferase Isoforms on Human Liver Microsomes” (Molecules : A Journal of Synthetic Chemistry and Natural …, 2017).
Like-named read-outs stand apart in the source and are kept apart here.

Columns and labels:
Assay type in all cases: in vitro ADME
CYP2E1 = biological target: T1, CYP2E1 (Homo sapiens, UniProt P05181); assay: CYP2E1 inhibition (chlorzoxazone 6-hydroxylase) in human liver microsomes, substrate cocktail LC-MS/MS
T1 construct: the incubation mixtures containing pooled HLMs (0.25 mg/mL, H2630, Xenotech); tissue Xenotech H2630; host or cells: pooled human liver microsomes
Description: (§1) The inhibitory effects of two selaginellins on the metabolism of ten P450 probe substrates were evaluated using previously reported method with minor modification. Phenacetin O-deethylase, coumarin 7-hydroxylase, bupropion 4-hydroxylase, amodiaquine N-deethylase, tolbutamide 4-hydroxylase, omeprazole 5-hydroxylase, dextromethorphan O-demethylase, chlorzoxazone 6-hydroxylase and midazolam 1′-hydroxylase activities were determined as probe activities for CYP1A2, CYP2A6, CYP2B6, CYP2C8, CYP2C9, CYP2C19, CYP2D6, CYP2E1 and […], respectively, using substrate cocktail incubation and tandem mass spectrometry (Table 2). Selaginellins were dissolved in methanol. The final concentrations of organic solvent (methanol) for the cocktail incubation conditions in all experiments were 1.0% (v/v). In brief, the incubation mixtures containing pooled HLMs (0.25 mg/mL, H2630, Xenotech), P450 probe substrate cocktail, and inhibitor (0, 0.5, 2, 5, 20 and 50 μM) were preincubated at 37 °C for 5 min. […] After mixing and centrifugation, aliquots were analyzed by liquid chromatography-tandem mass spectrometry (LC-MS/MS) as previous described. The CYP2J2 inhibitory effects of two selaginellins were also evaluated in pooled HLMs using previously reported method. […]

CYP3A = CYP3A inhibition (midazolam 1'-hydroxylase) in human liver microsomes, substrate cocktail LC-MS/MS
Description: as §1

CYP1A2 = biological target: T2, CYP1A2 (Homo sapiens, UniProt P05177); assay: CYP1A2 inhibition (phenacetin O-deethylase) in human liver microsomes, substrate cocktail LC-MS/MS
T2 construct: the incubation mixtures containing pooled HLMs (0.25 mg/mL, H2630, Xenotech); tissue Xenotech H2630; host or cells: pooled human liver microsomes
T2 sequence (P05177 1-516): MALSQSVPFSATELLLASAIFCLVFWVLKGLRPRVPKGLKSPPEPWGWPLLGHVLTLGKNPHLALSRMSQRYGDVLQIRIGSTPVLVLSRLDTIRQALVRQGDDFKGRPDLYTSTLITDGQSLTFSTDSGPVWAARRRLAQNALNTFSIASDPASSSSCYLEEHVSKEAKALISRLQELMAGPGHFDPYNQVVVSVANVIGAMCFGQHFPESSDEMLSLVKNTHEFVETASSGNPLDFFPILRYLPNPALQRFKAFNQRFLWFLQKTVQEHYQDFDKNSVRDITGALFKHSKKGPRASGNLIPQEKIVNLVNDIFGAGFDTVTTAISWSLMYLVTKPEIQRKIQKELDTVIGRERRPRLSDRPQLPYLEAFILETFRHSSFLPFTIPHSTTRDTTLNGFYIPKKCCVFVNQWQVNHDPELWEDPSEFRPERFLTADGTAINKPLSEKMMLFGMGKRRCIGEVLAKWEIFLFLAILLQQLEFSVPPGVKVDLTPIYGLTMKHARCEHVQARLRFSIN
Description: as §1

CYP2D6 = biological target: T3, CYP2D6 (Homo sapiens, UniProt P10635); assay: CYP2D6 inhibition (dextromethorphan O-demethylase) in human liver microsomes, substrate cocktail LC-MS/MS
T3 construct: the incubation mixtures containing pooled HLMs (0.25 mg/mL, H2630, Xenotech); tissue Xenotech H2630; host or cells: pooled human liver microsomes
Description: as §1

CYP2B6 = biological target: T4, CYP2B6 (Homo sapiens, UniProt P20813); assay: CYP2B6 inhibition (bupropion 4-hydroxylase) in human liver microsomes, substrate cocktail LC-MS/MS
T4 construct: the incubation mixtures containing pooled HLMs (0.25 mg/mL, H2630, Xenotech); tissue Xenotech H2630; host or cells: pooled human liver microsomes
T4 sequence (P20813 1-491): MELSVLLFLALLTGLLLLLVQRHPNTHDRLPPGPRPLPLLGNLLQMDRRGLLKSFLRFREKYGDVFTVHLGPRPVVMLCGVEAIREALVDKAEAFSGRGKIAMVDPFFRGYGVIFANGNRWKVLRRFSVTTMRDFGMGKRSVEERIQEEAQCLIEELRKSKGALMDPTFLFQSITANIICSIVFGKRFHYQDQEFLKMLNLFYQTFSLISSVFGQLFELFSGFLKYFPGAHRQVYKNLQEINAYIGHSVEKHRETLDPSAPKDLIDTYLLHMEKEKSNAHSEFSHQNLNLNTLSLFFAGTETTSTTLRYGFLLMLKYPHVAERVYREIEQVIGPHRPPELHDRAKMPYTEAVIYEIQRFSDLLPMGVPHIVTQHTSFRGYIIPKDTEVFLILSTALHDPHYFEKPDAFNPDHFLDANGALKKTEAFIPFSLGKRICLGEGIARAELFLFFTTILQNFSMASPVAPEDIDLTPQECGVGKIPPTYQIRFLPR
Description: as §1

CYP2C8 = biological target: T5, CYP2C8 (Homo sapiens, UniProt P10632); assay: CYP2C8 inhibition (amodiaquine N-deethylase) in human liver microsomes, substrate cocktail LC-MS/MS
T5 construct: the incubation mixtures containing pooled HLMs (0.25 mg/mL, H2630, Xenotech); tissue Xenotech H2630; host or cells: pooled human liver microsomes
T5 sequence (P10632 1-490): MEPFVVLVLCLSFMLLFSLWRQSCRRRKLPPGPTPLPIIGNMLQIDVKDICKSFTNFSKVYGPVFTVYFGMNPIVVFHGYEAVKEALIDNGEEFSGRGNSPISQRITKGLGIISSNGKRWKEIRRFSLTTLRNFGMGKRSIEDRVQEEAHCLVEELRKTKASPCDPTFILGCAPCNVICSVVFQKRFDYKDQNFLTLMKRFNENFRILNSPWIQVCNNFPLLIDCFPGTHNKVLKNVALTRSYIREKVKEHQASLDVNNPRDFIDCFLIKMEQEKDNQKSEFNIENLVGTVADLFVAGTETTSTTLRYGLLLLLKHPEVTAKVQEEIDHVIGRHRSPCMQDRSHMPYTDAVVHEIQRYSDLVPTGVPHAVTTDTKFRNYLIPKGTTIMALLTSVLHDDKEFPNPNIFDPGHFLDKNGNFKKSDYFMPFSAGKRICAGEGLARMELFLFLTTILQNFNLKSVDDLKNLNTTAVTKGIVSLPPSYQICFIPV
Description: The inhibitory effects of two selaginellins on the metabolism of ten P450 probe substrates were evaluated using previously reported method with minor modification. Phenacetin O-deethylase, coumarin 7-hydroxylase, bupropion 4-hydroxylase, amodiaquine N-deethylase, tolbutamide 4-hydroxylase, omeprazole 5-hydroxylase, dextromethorphan O-demethylase, chlorzoxazone 6-hydroxylase and midazolam 1′-hydroxylase activities were determined as probe activities for CYP1A2, CYP2A6, CYP2B6, CYP2C8, CYP2C9, CYP2C19, CYP2D6, CYP2E1 and […], respectively, using substrate cocktail incubation and tandem mass spectrometry (Table 2). Selaginellins were dissolved in methanol. The final concentrations of organic solvent (methanol) for the cocktail incubation conditions in all experiments were 1.0% (v/v). In brief, the incubation mixtures containing pooled HLMs (0.25 mg/mL, H2630, Xenotech), P450 probe substrate cocktail, and inhibitor (0, 0.5, 2, 5, 20 and 50 μM) were preincubated at 37 °C for 5 min. The reaction was initiated by adding of the NADPH generating system (3.3 mM G6P, 1.3 mM β-NADP+, 3.3 mM MgCl2, and 1 unit/mL G6PDH) followed by incubation for 15 min at 37 °C. Next, each incubation was stopped by addition of 50 μL ice-cold acetonitrile containing terfenadine (IS). After mixing and centrifugation, aliquots were analyzed by liquid chromatography-tandem mass spectrometry (LC-MS/MS) as previous described. The CYP2J2 inhibitory effects of two selaginellins were also evaluated in pooled HLMs using previously reported method. In brief, the incubation reaction mixtures contained 0.25 mg/mL HLMs, astemizole (1 μM) and inhibitor (0.5–50 μM) in […] phosphate buffer (pH 7.4). The reaction was initiated by the addition of NADPH-generating system and further incubated for 15 min. After reaction termination with cold acetonitrile containing 5 ng/mL terfenadine and centrifugation, aliquots were injected into a liquid chromatography-tandem mass spectrometry system (LC-MS/MS) as described previously (Table 2). All microsomal incubations were performed in triplicate. […]

CYP2C9 = biological target: T6, CYP2C9 (Homo sapiens, UniProt P11712); assay: CYP2C9 inhibition (tolbutamide 4-hydroxylase) in human liver microsomes, substrate cocktail LC-MS/MS; details: IC50 P450 isoform 2C9, pooled HLMs 0.25 mg/mL, tolbutamide 100 μM
T6 construct: the incubation mixtures containing pooled HLMs (0.25 mg/mL, H2630, Xenotech); tissue Xenotech H2630; host or cells: pooled human liver microsomes
Description: as §1

T6 sequence (P11712 whole entry, canonical isoform): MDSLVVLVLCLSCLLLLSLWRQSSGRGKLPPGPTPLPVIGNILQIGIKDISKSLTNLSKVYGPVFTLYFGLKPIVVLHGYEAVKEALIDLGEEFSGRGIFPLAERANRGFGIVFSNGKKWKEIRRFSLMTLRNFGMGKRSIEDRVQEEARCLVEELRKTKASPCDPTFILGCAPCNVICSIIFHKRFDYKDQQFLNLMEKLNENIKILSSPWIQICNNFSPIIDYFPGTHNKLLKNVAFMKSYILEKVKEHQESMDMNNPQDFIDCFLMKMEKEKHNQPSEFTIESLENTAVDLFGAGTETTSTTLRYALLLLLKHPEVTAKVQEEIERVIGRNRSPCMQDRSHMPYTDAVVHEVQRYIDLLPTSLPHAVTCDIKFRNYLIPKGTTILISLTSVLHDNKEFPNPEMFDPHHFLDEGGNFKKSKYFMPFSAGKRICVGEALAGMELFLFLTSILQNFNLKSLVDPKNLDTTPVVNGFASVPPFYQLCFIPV
T1 sequence (P05181 whole entry): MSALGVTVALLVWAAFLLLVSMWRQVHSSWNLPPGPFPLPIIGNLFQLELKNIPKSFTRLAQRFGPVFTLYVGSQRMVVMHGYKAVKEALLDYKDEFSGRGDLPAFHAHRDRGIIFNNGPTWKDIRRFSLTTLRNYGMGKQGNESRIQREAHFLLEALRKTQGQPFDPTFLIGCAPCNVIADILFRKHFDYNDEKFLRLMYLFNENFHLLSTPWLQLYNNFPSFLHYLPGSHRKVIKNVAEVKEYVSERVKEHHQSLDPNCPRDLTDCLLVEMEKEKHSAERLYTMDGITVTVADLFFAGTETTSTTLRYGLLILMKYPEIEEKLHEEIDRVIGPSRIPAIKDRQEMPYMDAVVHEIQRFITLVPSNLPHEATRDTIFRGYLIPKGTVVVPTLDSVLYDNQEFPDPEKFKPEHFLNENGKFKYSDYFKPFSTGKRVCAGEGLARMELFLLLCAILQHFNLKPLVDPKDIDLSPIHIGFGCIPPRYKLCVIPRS
T3 sequence (P10635 whole entry): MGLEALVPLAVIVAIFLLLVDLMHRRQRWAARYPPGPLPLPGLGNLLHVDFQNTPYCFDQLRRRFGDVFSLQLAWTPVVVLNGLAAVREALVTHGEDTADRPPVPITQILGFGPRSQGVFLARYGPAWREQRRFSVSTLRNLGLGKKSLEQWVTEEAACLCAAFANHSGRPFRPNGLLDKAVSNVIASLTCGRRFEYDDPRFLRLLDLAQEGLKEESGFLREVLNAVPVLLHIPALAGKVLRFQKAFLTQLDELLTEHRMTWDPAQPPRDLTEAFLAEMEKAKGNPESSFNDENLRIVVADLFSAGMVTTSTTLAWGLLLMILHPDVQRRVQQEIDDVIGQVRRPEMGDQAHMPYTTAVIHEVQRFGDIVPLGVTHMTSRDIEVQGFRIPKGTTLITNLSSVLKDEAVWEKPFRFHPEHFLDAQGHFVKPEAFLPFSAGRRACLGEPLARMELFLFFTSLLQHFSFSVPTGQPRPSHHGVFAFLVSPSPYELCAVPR

SMILES: COc1ccc(C(=C2C=CC(=O)C=C2)c2c(-c3ccc(O)cc3)ccc(CO)c2C#Cc2ccc(O)cc2)cc1 [Selaginellin M]
- IC50 (CYP2E1): > 50 µM
- IC50 at 15 min (CYP3A): > 50 µM
- IC50 (CYP1A2; pooled HLMs 0.25 mg/mL, phenacetin 100 μM, read-out: IC50 P450 isoform 1A2): > 50 µM
- IC50 (CYP2D6): 6.8 µM
- IC50 (CYP2B6): 11.3 µM
- IC50 (CYP2C8): 0.9 µM
- IC50 (CYP2C9): 3.9 µM

SMILES: O=C1C=CC(=C(c2ccc(O)cc2)c2c(-c3ccc(O)cc3)ccc(CO)c2C#Cc2ccc(O)cc2)C=C1 [Selaginellin]
- IC50 (CYP2E1): 38.5 µM
- IC50 at 15 min (CYP3A; pooled HLMs 0.25 mg/mL, midazolam 5.0 μM, read-out: IC50 P450 isoform 3A): 11.7 µM
- IC50 (CYP1A2): 36.4 µM
- IC50 (CYP2D6): 5.8 µM
- IC50 (CYP2B6): 10.7 µM
- IC50 (CYP2C8): 0.5 µM
- inhibitory potential for CYP2C8-mediated amodiaquine O-demethylation (class) (CYP2C8; human liver microsomes, class by Krippendorff's criteria): high (high (IC50 < 1 μM))
- IC50 (CYP2C9): 1.2 µM
